How the values were obtained:
Assay type in all cases: ADME
[1] = (§1) The drug is tested on Escherichia coli strain: DSM27469 for biotransformation under anaerobic condition. The drug concentrations were measured over 6 timepoints collected between 0 and 12 hours of incubation by liquid-chromatography-coupled mass spectrometry (LC–MS); design: dose 5 uM, timepoint 0, 1.5, 3, 6, 9, 12 hours; details: 5 µM
[2] = as §1, with “the gut metagenome community of P-03 with ENA study accession number: PRJEB31790” for “Escherichia coli strain: DSM27469”, “7” for “6”; design: dose 5 uM, timepoint 0, 0.75, 1.5, 3, 6, 9, 12 hours; details: 5 µM
[3] = as §1, with “the gut metagenome community of A-04 with ENA study accession number: PRJEB31790” for “Escherichia coli strain: DSM27469”, “microaerobic” for “anaerobic”, “7” for “6”; design: dose 5 uM, timepoint 0, 0.75, 1.5, 3, 6, 9, 12 hours; details: 5 µM
[4] = The drug is tested on Bacteroides stercoris strain: HM 1036 for biotransformation under anaerobic condition. The drug concentrations were measured over 6 timepoints collected between 0 and 12 hours of incubation by liquid-chromatography-coupled mass spectrometry (LC–MS); design: dose 5 uM, timepoint 0, 1.5, 3, 6, 9, 12 hours; details: 5 µM
[5] = (§2) The drug is tested on Alloscardovia omnicolens strain: DSM21503 for biotransformation under microaerobic condition. The drug concentrations were measured over 6 timepoints collected between 0 and 12 hours of incubation by liquid-chromatography-coupled mass spectrometry (LC–MS); design: dose 5 uM, timepoint 0, 1.5, 3, 6, 9, 12 hours; details: 5 µM
[6] = as §2, with “the gut metagenome community of T-01 with ENA study accession number: PRJEB31790” for “Alloscardovia omnicolens strain: DSM21503”, “7” for “6”; design: dose 5 uM, timepoint 0, 0.75, 1.5, 3, 6, 9, 12 hours; details: 5 µM
[7] = as §2, with “the gut metagenome community of A-02 with ENA study accession number: PRJEB31790” for “Alloscardovia omnicolens strain: DSM21503”, “7” for “6”; design: dose 5 uM, timepoint 0, 0.75, 1.5, 3, 6, 9, 12 hours; details: 5 µM
[8] = The drug is tested on Enterococcus faecalis strain: ATCC29212 for biotransformation under microaerobic condition. The drug concentrations were measured over 6 timepoints collected between 0 and 12 hours of incubation by liquid-chromatography-coupled mass spectrometry (LC–MS); design: dose 5 uM, timepoint 0, 1.5, 3, 6, 9, 12 hours; details: 5 µM
[9] = The drug is tested on Bacteroides thetaiotaomicron strain: DSM2079 for biotransformation under anaerobic condition. The drug concentrations were measured over 6 timepoints collected between 0 and 12 hours of incubation by liquid-chromatography-coupled mass spectrometry (LC–MS); design: dose 5 uM, timepoint 0, 1.5, 3, 6, 9, 12 hours; details: 5 µM
[10] = The drug is tested on Actinomyces naeslundi strain: DSM43013 for biotransformation under anaerobic condition. The drug concentrations were measured over 6 timepoints collected between 0 and 12 hours of incubation by liquid-chromatography-coupled mass spectrometry (LC–MS); design: dose 5 uM, timepoint 0, 1.5, 3, 6, 9, 12 hours; details: actinomyces naeslundii, 5 µM
[11] = as §2, with “the gut metagenome community of T-04 with ENA study accession number: PRJEB31790” for “Alloscardovia omnicolens strain: DSM21503”, “7” for “6”; design: dose 5 uM, timepoint 0, 0.75, 1.5, 3, 6, 9, 12 hours; details: 5 µM
[12] = The drug is tested on Bacteroides vulgatus strain: DSM1447 for biotransformation under anaerobic condition. The drug concentrations were measured over 6 timepoints collected between 0 and 12 hours of incubation by liquid-chromatography-coupled mass spectrometry (LC–MS); design: dose 5 uM, timepoint 0, 1.5, 3, 6, 9, 12 hours; details: phocaeicola vulgatus, 5 µM
[13] = as §2, with “the gut metagenome community of T-03 with ENA study accession number: PRJEB31790” for “Alloscardovia omnicolens strain: DSM21503”, “7” for “6”; design: dose 5 uM, timepoint 0, 0.75, 1.5, 3, 6, 9, 12 hours; details: 5 µM
[14] = The drug is tested on Gemella morbillorum strain: DSM20572 for biotransformation under microaerobic condition. The drug concentrations were measured over 6 timepoints collected between 0 and 12 hours of incubation by liquid-chromatography-coupled mass spectrometry (LC–MS); design: dose 5 uM, timepoint 0, 1.5, 3, 6, 9, 12 hours; details: 5 µM
[15] = The drug is tested on Bacteroides ovatus strain: ATCC 8483 for biotransformation under anaerobic condition. The drug concentrations were measured over 6 timepoints collected between 0 and 12 hours of incubation by liquid-chromatography-coupled mass spectrometry (LC–MS); design: dose 5 uM, timepoint 0, 1.5, 3, 6, 9, 12 hours; details: 5 µM
[16] = The drug is tested on Bifidobacterium longum strain: DSM20088 for biotransformation under microaerobic condition. The drug concentrations were measured over 6 timepoints collected between 0 and 12 hours of incubation by liquid-chromatography-coupled mass spectrometry (LC–MS); design: dose 5 uM, timepoint 0, 1.5, 3, 6, 9, 12 hours; details: 5 µM
[17] = as §2, with “the gut metagenome community of A-07 with ENA study accession number: PRJEB31790” for “Alloscardovia omnicolens strain: DSM21503”, “7” for “6”; design: dose 5 uM, timepoint 0, 0.75, 1.5, 3, 6, 9, 12 hours; details: 5 µM
[18] = The drug is tested on Bifidobacterium longum strain: DSM20088 for biotransformation under anaerobic condition. The drug concentrations were measured over 6 timepoints collected between 0 and 12 hours of incubation by liquid-chromatography-coupled mass spectrometry (LC–MS); design: dose 5 uM, timepoint 0, 1.5, 3, 6, 9, 12 hours; details: 5 µM
[19] = The drug is tested on Odoribacter splanchnicus strain: DSM20712 for biotransformation under anaerobic condition. The drug concentrations were measured over 6 timepoints collected between 0 and 12 hours of incubation by liquid-chromatography-coupled mass spectrometry (LC–MS); design: dose 5 uM, timepoint 0, 1.5, 3, 6, 9, 12 hours; details: 5 µM
[20] = The drug is tested on Clostridium bolteae strain: DSM15670 for biotransformation under anaerobic condition. The drug concentrations were measured over 6 timepoints collected between 0 and 12 hours of incubation by liquid-chromatography-coupled mass spectrometry (LC–MS); design: dose 5 uM, timepoint 0, 1.5, 3, 6, 9, 12 hours; details: enterocloster bolteae, 5 µM
[21] = The drug is tested on Streptococcus mitis strain: DSM12643 for biotransformation under anaerobic condition. The drug concentrations were measured over 6 timepoints collected between 0 and 12 hours of incubation by liquid-chromatography-coupled mass spectrometry (LC–MS); design: dose 5 uM, timepoint 0, 1.5, 3, 6, 9, 12 hours; details: 5 µM
[22] = as §1, with “the gut metagenome community of T-01 with ENA study accession number: PRJEB31790” for “Escherichia coli strain: DSM27469”, “7” for “6”; design: dose 5 uM, timepoint 0, 0.75, 1.5, 3, 6, 9, 12 hours; details: 5 µM
[23] = as §1, with “the gut metagenome community of A-03 with ENA study accession number: PRJEB31790” for “Escherichia coli strain: DSM27469”, “7” for “6”; design: dose 5 uM, timepoint 0, 0.75, 1.5, 3, 6, 9, 12 hours; details: 5 µM
[24] = The drug is tested on Ruminococcus gnavus strain: ATCC29149 for biotransformation under anaerobic condition. The drug concentrations were measured over 6 timepoints collected between 0 and 12 hours of incubation by liquid-chromatography-coupled mass spectrometry (LC–MS); design: dose 5 uM, timepoint 0, 1.5, 3, 6, 9, 12 hours; details: mediterraneibacter gnavus, 5 µM
[25] = The drug is tested on Roseburia intestinalis strain: DSM14610 for biotransformation under anaerobic condition. The drug concentrations were measured over 6 timepoints collected between 0 and 12 hours of incubation by liquid-chromatography-coupled mass spectrometry (LC–MS); design: dose 5 uM, timepoint 0, 1.5, 3, 6, 9, 12 hours; details: 5 µM
[26] = The drug is tested on Collinsella aerofaciens strain: DSM3979 for biotransformation under anaerobic condition. The drug concentrations were measured over 6 timepoints collected between 0 and 12 hours of incubation by liquid-chromatography-coupled mass spectrometry (LC–MS); design: dose 5 uM, timepoint 0, 1.5, 3, 6, 9, 12 hours; details: 5 µM
[27] = as §1, with “the gut metagenome community of A-04 with ENA study accession number: PRJEB31790” for “Escherichia coli strain: DSM27469”, “7” for “6”; design: dose 5 uM, timepoint 0, 0.75, 1.5, 3, 6, 9, 12 hours; details: 5 µM
[28] = The drug is tested on Coprococcus comes strain: ATCC27758 for biotransformation under anaerobic condition. The drug concentrations were measured over 6 timepoints collected between 0 and 12 hours of incubation by liquid-chromatography-coupled mass spectrometry (LC–MS); design: dose 5 uM, timepoint 0, 1.5, 3, 6, 9, 12 hours; details: 5 µM
[29] = as §1, with “the gut metagenome community of A-08 with ENA study accession number: PRJEB31790” for “Escherichia coli strain: DSM27469”, “7” for “6”; design: dose 5 uM, timepoint 0, 0.75, 1.5, 3, 6, 9, 12 hours; details: 5 µM
[30] = as §2, with “the gut metagenome community of P-02 with ENA study accession number: PRJEB31790” for “Alloscardovia omnicolens strain: DSM21503”, “7” for “6”; design: dose 5 uM, timepoint 0, 0.75, 1.5, 3, 6, 9, 12 hours; details: 5 µM

Bacterial Biotransformation [1]	Bacterial Biotransformation [2]	Bacterial Biotransformation [3]	Bacterial Biotransformation [4]	Bacterial Biotransformation [5]	Bacterial Biotransformation [6]	Bacterial Biotransformation [7]	Bacterial Biotransformation [8]	Bacterial Biotransformation [9]	Bacterial Biotransformation [10]	Bacterial Biotransformation [11]	Bacterial Biotransformation [12]	Bacterial Biotransformation [13]	Bacterial Biotransformation [14]	Bacterial Biotransformation [15]	Bacterial Biotransformation [16]	Bacterial Biotransformation [17]	Bacterial Biotransformation [18]	Bacterial Biotransformation [19]	Bacterial Biotransformation [20]	other results	Compound
Compound NOT metabolized	Compound metabolized	Compound metabolized	Compound NOT metabolized	Compound NOT metabolized	Compound metabolized	Compound metabolized	Compound NOT metabolized	Compound NOT metabolized	Compound NOT metabolized	Compound metabolized	Compound NOT metabolized	Compound NOT metabolized	Compound NOT metabolized	Compound NOT metabolized	Compound NOT metabolized	Compound metabolized	Compound NOT metabolized	Compound NOT metabolized	Compound NOT metabolized	Bacterial Biotransformation [21]: Compound NOT metabolized; Bacterial Biotransformation [22]: Compound metabolized; Bacterial Biotransformation [23]: Compound NOT metabolized; Bacterial Biotransformation [24]: Compound NOT metabolized; Bacterial Biotransformation [25]: Compound NOT metabolized; Bacterial Biotransformation [26]: Compound NOT metabolized; Bacterial Biotransformation [27]: Compound NOT metabolized; Bacterial Biotransformation [28]: Compound NOT metabolized; Bacterial Biotransformation [29]: Compound metabolized; Bacterial Biotransformation [30]: Compound NOT metabolized	CCCC1O[C@@H]2C[C@H]3[C@@H]4CCC5=CC(=O)C=C[C@]5(C)[C@H]4[C@@H](O)C[C@]3(C)[C@]2(C(=O)CO)O1 (stereo not given in full) [BUDESONIDE]
Compound NOT metabolized	Compound NOT metabolized	Compound metabolized	Compound metabolized	Compound NOT metabolized	Compound NOT metabolized	Compound metabolized	Compound metabolized	Compound NOT metabolized	Compound metabolized	Compound NOT metabolized	Compound NOT metabolized	Compound NOT metabolized	Compound NOT metabolized	Compound NOT metabolized	Compound NOT metabolized	Compound metabolized	Compound metabolized	Compound NOT metabolized	Compound metabolized	Bacterial Biotransformation [21]: Compound NOT metabolized; Bacterial Biotransformation [22]: Compound NOT metabolized; Bacterial Biotransformation [23]: Compound metabolized; Bacterial Biotransformation [24]: Compound NOT metabolized; Bacterial Biotransformation [25]: Compound metabolized; Bacterial Biotransformation [26]: Compound metabolized; Bacterial Biotransformation [27]: Compound metabolized; Bacterial Biotransformation [28]: Compound metabolized; Bacterial Biotransformation [29]: Compound metabolized; Bacterial Biotransformation [30]: Compound NOT metabolized	CO[C@H]1C[C@@H]2CC[C@@H](C)[C@@](O)(O2)C(=O)C(=O)N2CCCC[C@H]2C(=O)O[C@H]([C@H](C)C[C@@H]2CC[C@@H](O)[C@H](OC)C2)CC(=O)[C@H](C)/C=C(\C)[C@@H](O)[C@@H](OC)C(=O)[C@H](C)C[C@H](C)/C=C/C=C/C=C/1C [SIROLIMUS]
Compound NOT metabolized	Compound metabolized	Compound metabolized	Compound NOT metabolized	Compound NOT metabolized	Compound NOT metabolized	Compound metabolized	Compound NOT metabolized	Compound NOT metabolized	Compound NOT metabolized	Compound NOT metabolized	Compound NOT metabolized	Compound NOT metabolized	Compound NOT metabolized	Compound NOT metabolized	Compound NOT metabolized	Compound metabolized	Compound NOT metabolized	Compound NOT metabolized	Compound NOT metabolized	Bacterial Biotransformation [21]: Compound NOT metabolized; Bacterial Biotransformation [22]: Compound NOT metabolized; Bacterial Biotransformation [23]: Compound metabolized; Bacterial Biotransformation [24]: Compound NOT metabolized; Bacterial Biotransformation [25]: Compound NOT metabolized; Bacterial Biotransformation [26]: Compound NOT metabolized; Bacterial Biotransformation [27]: Compound metabolized; Bacterial Biotransformation [28]: Compound NOT metabolized; Bacterial Biotransformation [29]: Compound metabolized; Bacterial Biotransformation [30]: Compound NOT metabolized	C[C@H]1C[C@H]2[C@@H]3CCC4=CC(=O)C=C[C@]4(C)[C@@]3(F)[C@@H](O)C[C@]2(C)[C@@]1(O)C(=O)CO [BETAMETHASONE]

Source: ChEMBL document CHEMBL5724806, “Unraveling interindividual differences and functional consequences of gut microbial metabolism of immunosuppressants” (2024)
